Data reported in patent publication US20020042393A1, “Excipient” (priority 1998, published 2002).
Values belong to the molecule of their own block, whether it stands above or below them.

Experiments:
[1] = Proportion of particles of 75 μm or more (Air Jet Sieve); type: physicochemical; settings: excipient powder
Experimental: Five grams of trehalose was weighed onto a screen having a screen opening of 75 μm, and sifted with Air Jet Sieve (Model 200LS, mfd. by ALPINE) for 5 minutes, and the weight percentage of the weight of particles remaining on the screen based on the total weight of particles was calculated as the proportion of particles of 75 μm or more.

[2] = Wet granulation of phenacetin mixture with HPC binder solution: granule size and yield
Apparent specific volume = type: physicochemical; settings: excipient powder
Description: The whole of 10 g of trehalose powder was gently poured into a 100-ml measuring cylinder without making an impact (in this case, a cylinder having an outside diameter smaller than the inside diameter of the measuring cylinder was placed in the measuring cylinder, and it was slowly lifted after pouring the trehalose), and the apparent specific volume was expressed as a value obtained by dividing the read volume by the weight of the trehalose.

[3] = Dissolution test (13th revised Japanese Pharmacopoeia) of phenacetin granules; type: physicochemical
Experimental: The wet granules obtained in Example 6 were subjected to a dissolution test according to the dissolution test prescribed in the 13th revised Japanese Pharmacopoeia. The first liquid listed in the Japanese Pharmacopoeia was used as a test liquid, and the drug dissolution rate after 5 minutes was measured. The dissolution rate was calculated by taking the total amount of the drug contained in the granules as 100%. […] In the case of the trehaloses J and K, the dissolution rate after 5 minutes was as very high as 80%.
The granules prepared from each of lactose and Mannit P in Comparative Example 4 were subjected to a dissolution test according to the dissolution test prescribed in the 13th revised Japanese Pharmacopoeia. The first liquid listed in the Japanese Pharmacopoeia was used as a test liquid, and the drug dissolution rate after 5 minutes was measured. The drug dissolution rate was calculated by taking the total amount of the drug contained in the granules as 100%. […] In the case of lactose and Mannit P, the dissolution rate after 5 minutes was lower than in the case of trehaloses J and K.

[4] = Tablet hardness (Schleuniger hardness meter); type: physicochemical; settings: for Tablet hardness at a compression pressure of 1000 kg/cm^2: phenacetin granules
[5] = Average particle size (sieving, 50% cumulative weight); type: physicochemical; settings: excipient powder
Experimental: Five grams of trehalose was sifted through screens having screen openings of 500 μm, 300 μm and 250 μm, respectively, and then sifted with Air Jet Sieve by using screens having screen openings of 150 μm, 75 μm, 45 μm, 38 μm and 32 μm, respectively. The oversize particle weight percentage [%] was calculated for each screen, and the average particle size is expressed as a particle size corresponding to a cumulative weight percentage of 50%.

[6] = Whiteness of powder (color analyzer); type: physicochemical; settings: excipient powder
Experimental: (§1) For powder of trehalose or a pharmaceutical composition containing trehalose, values of L, a and b were measured with a color analyzer (TC-1800MKII, mfd. by Tokyo Denshoku Co., Ltd.), and the whiteness of the trehalose or pharmaceutical composition was calculated by the following equation: […]

[7] = Angle of repose (Sugiwara's instrument); type: physicochemical; settings: excipient powder
Description: Measured by means of a Sugiwara's instrument for measuring angle of repose (Yakuzaigaku 27, p. 260, 1965).

[8] = Water content (Karl Fisher) of tablets before and after storage; type: physicochemical; settings: tablets compressed at 500 kg/cm^2
Experimental: Determined as a value obtained by measuring about 0.1 g of trehalose and determining its water content by the Karl Fisher method.
One hundred grams of commercial “Trehaose” (available from Hayashibara Biochemical Laboratories, Inc.) was dissolved in water to a concentration of about 35 wt %, and the resulting solution was concentrated under reduced pressure with heating at 60° C. so as to have a concentration of about 75 wt %, and allowed to stand at room temperature to precipitate crystals, which were washed with 50 ml of water. Glucose was removed by carrying out the above purification procedure once or twice, to increase the trehalose purity. Trehalose A was obtained by carrying out the purification procedure twice to obtain crystals, drying the crystals, grinding the dried crystals with a bantam mill (number of revolutions 15,000 rpm, feed rate 5 kg/hr, and screen opening 2.0 mmφ), and then sifting the ground crystals through a […]. Trehalose B was obtained by carrying out the purification procedure once to obtain crystals, drying the crystals, grinding the dried crystals with a bantam mill (number of revolutions 10,000 rpm, feed rate 5 kg/hr, and screen opening 2.00 mmφ), and then sifting the ground crystals through a 350-μm screen. Trehalose C was obtained by carrying out the purification procedure once to obtain crystals, drying the crystals, grinding the dried crystals with a bantam mill (number of revolutions 8,000 rpm, feed rate 5 kg/hr, and screen opening 2.0 mmφ), and then sifting the ground crystals through a 350-μm screen. […] Each of trehaloses A to C was compressed into tablets at a compression pressure of 500 kg/cm^2, and the tablet hardness immediately after the compression and the tablet hardness after standing for 3 days in an atmosphere of 40° C. and 75% RH after the compression were compared.
“Trehaose” (available from Hayashibara Bioscience Laboratories Co., Ltd.) was purified once by the method described in Example 1 to obtain crystals, which were dried, ground with a bantam mill (number of revolutions 12,000 rpm, feed rate 5 kg/hr, and screen opening 2.0 mmφ) and then dried at 105° C. for 4 hours to obtain trehalose anhydrous crystals. These crystals were compressed into tablets at a compression pressure of 500 kg/cm^2, and the tablet hardnesses of the tablets were compared in the same manner as in Example 1.

[9] = Change in whiteness of excipient mixed with drug at 40° C. and 75% RH (reactivity); type: physicochemical; settings: listed as A
Experimental: as §1
One gram of each of the trehaloses obtained in Example 1 and 1 g of isoniazid were mixed and then allowed to stand in an atmosphere of 40° C. and 75% RH, and the change in whiteness of the trehalose was observed. On the other hand, 1 g of each of the trehaloses obtained in Example 1 and 1 g of aminophyline were mixed and then allowed to stand in an atmosphere of 40° C. and 75% RH, and the change in whiteness of the trehalose was observed.
One gram of 100-mesh lactose (available from De Melkindustrie Veghel bv) or 1 g of Mannit S (available from Tohwa Kasei Co., Ltd.) and 1 g of aminophyline were mixed and then allowed to stand in an atmosphere of 40° C. and 75% RH, and the change in whiteness of the lactose or Mannit S was observed.
As a starting material. […]

[10] = Consolidation of powder during storage; type: physicochemical; settings: compared with trehaloses B and C
[11] = Disintegration time according to Japanese Pharmacopoeia; type: physicochemical
Experimental: The disintegration time of each of six molded products was measured by the use of ion-exchanged water according to the disintegration time measuring method prescribed in the 13th revised Japanese Pharmacopoeia, and the average of measured values was calculated.

[12] = phenacetin 50/excipient 30/corn starch 10/microcrystalline cellulose 10, binding solution 100 g
[13] = phenacetin granules, binding solution 120 g
[14] = phenacetin granules, binding solution 160 g
[15] = Example 10: as Example 9 but molded at 60 kg/cm^2, listed as A
[16] = ascorbic acid tablets (Example 12), compression pressure 500 kg/cm^2
[17] = ascorbic acid tablets (Example 12), compression pressure 800 kg/cm^2
[18] = phenacetin granules, binding solution 180 g
[19] = phenacetin granules, binding solution 240 g

Proportion of particles of 75 μm or more [1]: 40%
Average particle size of granules [2, 12]: 110 μm
Average particle size of granules [2, 13]: 130 μm
Average particle size of granules ([2]; phenacetin granules, binding solution 120 g, listed as J): 130 μm
Average particle size of granules [2, 14]: 270 μm
Apparent specific volume (Apparent specific volume): 2.0 cm^3/g
Drug dissolution rate after 5 min. ([3]; binding solution 120, first liquid of Japanese Pharmacopoeia): 80%
Tablet hardness at a compression pressure of 1000 kg/cm^2 ([4]; binding solution 100 g): 5.1 kgf
Tablet hardness at a compression pressure of 1000 kg/cm^2 ([4]; binding solution 120 g, listed as J): 4.7 kgf
Tablet hardness at a compression pressure of 1000 kg/cm^2 ([4]; binding solution 160 g): 3.0 kgf
Average particle size [5]: 60 μm
Whiteness [6]: 96%
Angle of repose [7]: 41 °
Compound: OC[C@H]1O[C@H](O[C@H]2O[C@H](CO)[C@@H](O)[C@H](O)[C@H]2O)[C@H](O)[C@@H](O)[C@@H]1O [Trehalose J, trehalose]

Proportion of particles of 75 μm or more ([1]; listed as A): 15%
Apparent specific volume (Apparent specific volume; listed as A): 3.1 cm^3/g
Tablet hardness ([4]; Example 8: molded product of trehalose only, molded at 30 kg/cm^2, dried overnight at 40° C., listed as A): 7.5 kg
Tablet hardness [4, 15]: 10.2 kg
Tablet hardness [4, 16]: 4.0 kgf
Tablet hardness [4, 17]: 7.0 kgf
Tablet hardness ([4]; process of Example 9: 950 g excipient + 50 g phenylpropanolamine hydrochloride, molded at 30 kg/cm^2, listed as A): 7.0 kg
Tablet hardness ([4]; tablets compressed at 500 kg/cm^2, 0 day (immediately after compression), listed as A): 2.6 kgf
Tablet hardness ([4]; tablets compressed at 500 kg/cm^2, 3 days at 40° C. and 75% RH, listed as A): 2.5 kgf
Water content ([8]; 0 day, listed as A): 9.7%
Water content ([8]; 3 days at 40° C. and 75% RH): 9.8%
Average particle size ([5]; listed as A): 35 μm
Whiteness ([9]; 1 g excipient + 1 g aminophyline, 0 day): 100%
Whiteness ([9]; 1 g excipient + 1 g aminophyline, 40° C. and 75% RH, 1 month): 98%
Whiteness ([9]; 1 g excipient + 1 g isoniazid, 0 day): 98%
Whiteness ([9]; 1 g excipient + 1 g isoniazid, 40° C. and 75% RH, 1 month): 97%
Whiteness ([6]; listed as A): 98%
Consolidation during storage [10]: consolidated during storage
Angle of repose ([7]; listed as A): 48 °
Disintegration time according to Japanese Pharmacopoeia ([11]; Example 8: molded product of trehalose only, 30 kg/cm^2, listed as A): 15 s
Disintegration time according to Japanese Pharmacopoeia [11, 15]: 52 s
Disintegration time according to Japanese Pharmacopoeia [11, 16]: 17 s
Disintegration time according to Japanese Pharmacopoeia [11, 17]: 25 s
Disintegration time according to Japanese Pharmacopoeia ([11]; process of Example 9: 950 g excipient + 50 g phenylpropanolamine hydrochloride, 30 kg/cm^2, listed as A): 16 s
Compound: OC[C@H]1O[C@H](O[C@H]2O[C@H](CO)[C@@H](O)[C@H](O)[C@H]2O)[C@H](O)[C@@H](O)[C@@H]1O [Trehalose A, trehalose]

Proportion of particles of 75 μm or more [1]: 20%
Average particle size of granules [2, 18]: 106 μm
Average particle size of granules ([2]; phenacetin granules, binding solution 200 g): 144 μm
Average particle size of granules [2, 19]: 313 μm
Apparent specific volume (Apparent specific volume): 2.1 cm^3/g
Drug dissolution rate after 5 min. ([3]; binding solution 200, first liquid of Japanese Pharmacopoeia): 70%
Tablet hardness at a compression pressure of 1000 kg/cm^2 ([4]; binding solution 180 g): 3.9 kgf
Tablet hardness at a compression pressure of 1000 kg/cm^2 ([4]; binding solution 200 g): 3.0 kgf
Tablet hardness at a compression pressure of 1000 kg/cm^2 ([4]; binding solution 240 g): 3.1 kgf
Average particle size [5]: 47 μm
Whiteness [6]: 96%
Angle of repose [7]: 45 °
Compound: OC[C@@H](O)[C@@H](O)[C@H](O)[C@H](O)CO [Mannit P, reference compound]

Proportion of particles of 75 μm or more [1]: 15%
Average particle size of granules [2, 18]: 91 μm
Average particle size of granules ([2]; phenacetin granules, binding solution 220 g): 150 μm
Average particle size of granules [2, 19]: 220 μm
Apparent specific volume (Apparent specific volume): 2.1 cm^3/g
Drug dissolution rate after 5 min. ([3]; binding solution 240, first liquid of Japanese Pharmacopoeia): 60%
Tablet hardness at a compression pressure of 1000 kg/cm^2 ([4]; binding solution 180 g): 2.5 kgf
Tablet hardness at a compression pressure of 1000 kg/cm^2 ([4]; binding solution 220 g): 3.0 kgf
Tablet hardness at a compression pressure of 1000 kg/cm^2 ([4]; binding solution 240 g): 3.7 kgf
Average particle size [5]: 60 μm
Whiteness [6]: 95%
Angle of repose [7]: 45 °
Compound: OC[C@H]1O[C@@H](O[C@H]2[C@H](O)[C@@H](O)C(O)O[C@@H]2CO)[C@H](O)[C@@H](O)[C@H]1O (some centres unmarked) [200M lactose, lactose, reference compound]

Proportion of particles of 75 μm or more [1]: 21%
Average particle size of granules [2, 12]: 120 μm
Average particle size of granules [2, 13]: 140 μm
Average particle size of granules [2, 14]: 180 μm
Average particle size of granules ([2]; phenacetin granules, binding solution 160 g, listed as K): 180 μm
Apparent specific volume (Apparent specific volume): 2.1 cm^3/g
Drug dissolution rate after 5 min. ([3]; binding solution 160, first liquid of Japanese Pharmacopoeia): 80%
Tablet hardness at a compression pressure of 1000 kg/cm^2 ([4]; binding solution 100 g): 5.0 kgf
Tablet hardness at a compression pressure of 1000 kg/cm^2 ([4]; binding solution 120 g): 4.5 kgf
Tablet hardness at a compression pressure of 1000 kg/cm^2 ([4]; binding solution 160 g, listed as K): 2.9 kgf
Average particle size [5]: 50 μm
Whiteness [6]: 97%
Angle of repose [7]: 42 °
Compound: OC[C@H]1O[C@H](O[C@H]2O[C@H](CO)[C@@H](O)[C@H](O)[C@H]2O)[C@H](O)[C@@H](O)[C@@H]1O [Trehalose K, trehalose]
